Patent publication US5225528A, “Cyclic hexapeptide oxytocin antagonists” (priority 1990, dated 1993)
Counter-ions that a name gives are not always drawn. Like-named read-outs stand apart in the source and are kept apart here. Numbered stars: 1 amine (or outer) side, 2 acyl side, 3 side chain; on linkers, the order of the positions; unused ones are H or OH. Square brackets hold non-standard residues; d marks the D form. Peptide text beside a SMILES is read from it. * marks the point of attachment. X2 = O=C(OCc1ccccc1)N1CCN([*:1])[C@H](C(=O)[*:2])C1; dPiz(1,6-dehydro) = O=C(O)[C@H]1CCC=NN1; NMeI = CC[C@H](C)[C@H](NC)C(=O)O; Pip(4-aza) = O=C(O)[C@@H]1CNCCN1; X6 = O=C([C@H]1CCCNN1[*:1])[*:2]; dNMeF = CN[C@H](Cc1ccccc1)C(=O)O; dPip(4-aza) = O=C(O)[C@H]1CNCCN1; Pip = O=C(O)[C@@H]1CCCCN1; dPip = O=C(O)[C@H]1CCCCN1; Orn = NCCC[C@H](N)C(=O)O; Cbz = O=C(OCc1ccccc1)*; Boc = CC(C)(C)OC(=O)*; Dha = C=C(N)C(=O)O; OtBu = CC(C)(C)O*

Columns and labels:
AVP-V1 sites = target: T1, AVP-V1 sites (Rattus norvegicus, UniProt P30560); assay: [^3 H]AVP binding to crude membrane preparation of male rat liver (AVP-V1 sites)
T1 construct: crude membrane preparation of male rat liver (AVP-V1 sites); from tissue; host or cells: male rat liver, crude membranes
T1 sequence (P30560 whole entry): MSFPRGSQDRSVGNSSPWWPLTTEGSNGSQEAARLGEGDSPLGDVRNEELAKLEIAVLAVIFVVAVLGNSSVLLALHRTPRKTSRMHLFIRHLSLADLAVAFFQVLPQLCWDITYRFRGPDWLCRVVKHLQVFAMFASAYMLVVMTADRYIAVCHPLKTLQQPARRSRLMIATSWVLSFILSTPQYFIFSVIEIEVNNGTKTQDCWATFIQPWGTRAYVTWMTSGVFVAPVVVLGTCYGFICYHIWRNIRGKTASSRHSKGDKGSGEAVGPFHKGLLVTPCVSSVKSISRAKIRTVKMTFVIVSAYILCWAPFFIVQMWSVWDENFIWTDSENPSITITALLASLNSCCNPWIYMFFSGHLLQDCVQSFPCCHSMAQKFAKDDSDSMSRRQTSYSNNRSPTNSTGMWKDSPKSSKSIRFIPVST
Protocol: (§1) Nonspecific binding (5-10% of the total binding) was determined using 10 μM unlabeled AVP, and the binding reaction was terminated by filtration as described above for the [^3 H]OT binding assay.

uterine OT receptors = target: T2, uterine OT receptors (Rattus norvegicus, UniProt P70536); assay: [^3 H]OT binding to uterine OT receptors, crude membrane preparation of uteri from DES-treated rats; details: for inhibition at 0.1 µM: 1 h, @ 100 (nM), read-out: [^3 H]OT: percent inhibition of radioligand at the given concentration
T2 construct: from tissue; host or cells: uterus of DES-treated rats, crude membranes
T2 sequence (P70536 1-388): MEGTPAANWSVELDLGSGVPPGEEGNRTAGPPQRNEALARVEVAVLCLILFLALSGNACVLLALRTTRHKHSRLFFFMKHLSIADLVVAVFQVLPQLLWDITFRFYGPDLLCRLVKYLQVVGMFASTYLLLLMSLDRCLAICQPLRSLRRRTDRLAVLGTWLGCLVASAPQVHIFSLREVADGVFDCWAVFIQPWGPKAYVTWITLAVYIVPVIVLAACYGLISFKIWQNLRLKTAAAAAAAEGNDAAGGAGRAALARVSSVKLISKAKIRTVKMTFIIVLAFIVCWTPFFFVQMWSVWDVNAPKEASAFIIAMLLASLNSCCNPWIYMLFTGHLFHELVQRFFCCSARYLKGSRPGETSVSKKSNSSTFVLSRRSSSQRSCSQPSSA
Protocol: Competition studies were conducted at equilibrium (60 minutes; 22° C.) using 1 nM [^3 H]OT in the following assay buffer: 50 mM Tris-HCl, 5 mM MgCl2, and 0.1% BSA, pH 7.4.

AVP-V2 sites = target: T3, AVP-V2 sites (Rattus norvegicus, UniProt Q00788); assay: [^3 H]AVP binding to crude membrane preparation of male rat kidney medulla (AVP-V2 sites)
T3 construct: male rat liver (AVP-V1 sites) or kidney medulla (AVP-V2 sites); from tissue; host or cells: male rat kidney medulla, crude membranes
T3 sequence (Q00788 whole entry): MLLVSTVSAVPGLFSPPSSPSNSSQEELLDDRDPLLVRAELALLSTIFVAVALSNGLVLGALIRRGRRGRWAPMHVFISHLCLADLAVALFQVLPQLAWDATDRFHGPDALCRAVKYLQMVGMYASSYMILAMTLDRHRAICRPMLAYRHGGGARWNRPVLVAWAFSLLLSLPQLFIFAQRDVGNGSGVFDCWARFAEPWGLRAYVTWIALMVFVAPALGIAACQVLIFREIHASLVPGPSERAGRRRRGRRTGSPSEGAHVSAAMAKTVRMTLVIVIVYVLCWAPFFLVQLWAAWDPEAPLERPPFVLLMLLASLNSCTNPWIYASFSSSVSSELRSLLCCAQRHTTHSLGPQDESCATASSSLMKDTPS
Protocol: as §1

[1] = read-out: Receptor Binding Results IC50 (nM) [^3 H]-AVP-V1
[2] = rat uterus membranes, 1 nM [^3 H]OT, read-out: Receptor Binding Results IC50 (nM) [^3 H]OT
[3] = read-out: Receptor Binding Results IC50 (nM) [^3 H]-AVP-V2
[4] = Receptor Binding Results IC50 (nM) [^3 H]-AVP-V1
[5] = rat kidney medulla membranes, 2 nM [^3 H]AVP, read-out: Receptor Binding Results IC50 (nM) [^3 H]-AVP-V2

Row | IC50 (AVP-V1 sites; [1]) [nM] | IC50 (AVP-V2 sites; [3]) [nM] | Compound | IC50 (uterine OT receptors; [2]) [nM] | IC50 (AVP-V1 sites; [4]) [nM] | IC50 (AVP-V2 sites; [5]) [nM] | inhibition at 0.1 µM (uterine OT receptors) [%] | IC50 (AVP-V2 sites; Receptor Binding Results IC50 (nM) [^3 H]-AVP-V2) [nM] | IC50 (uterine OT receptors; Receptor Binding Results IC50 (nM) [^3 H]OT) [nM]
1 | 10000 | > 10000 | CC[C@H](C)[C@@H]1NC(=O)[C@@H](Cc2ccccc2)NC(=O)[C@@H]2CCCN2C(=O)[C@@H](Cc2c[nH]cn2)NC(=O)[C@@H]2CCCCN2C(=O)[C@H]2CCCNN2C1=O [Example 14, Cyclo[D-phenylalanyl-L-isoleucyl-D-piperazyl-L-pipecolyl-D-histidyl-L-prolyl]] (cyclo(I[X6][Pip][dH]P[dF])) | 38 |  |  |  |  | 
2 |  |  | CC[C@H](C)[C@@H]1NC(=O)[C@@H](Cc2ccccc2)NC(=O)[C@@H]2CCCN2C(=O)[C@@H](Cc2ccccc2)NC(=O)[C@@H]2CNCCN2C(=O)[C@H]2CNCCN2C1=O [Example 80, c-[D-Phenylalanyl-L-isoleucinyl-D-piperazin-2-yl-L-piperazin-2-yl-D-phenylalanyl-L-prolyl]] (cyclo(I[dPip(4-aza)][Pip(4-aza)][dF]P[dF])) | 10000 | > 10000 | > 10000 |  |  | 
3 | 1500 | 2800 | CC[C@H](C)[C@@H]1NC(=O)[C@@H](Cc2ccccc2)NC(=O)[C@@H]2CCCN2C(=O)[C@@H](Cc2ccccc2)N(C)C(=O)[C@H](CCCCNC(=O)OC(C)(C)C)NC(=O)[C@H]2CCC=NN2C1=O [Example 173, C-[D-Phenylalanyl-L-isoleucyl-D-Δ-piperazyl-L-(N^ε -t-Butyloxycarbonyl)-Lysl-M-Me-D-phenylalanyl-L-prolyl]] (cyclo(I[dPiz(1,6-dehydro)]K(Boc)[dNMeF]P[dF])) | 71 |  |  |  |  | 
4 |  |  | CC[C@H](C)[C@H]1C(=O)N2CCCC[C@@H]2C(=O)N2CCCC[C@H]2C(=O)N(C)[C@H](Cc2ccccc2)C(=O)N2CCC[C@H]2C(=O)N[C@H](Cc2ccccc2)C(=O)N1C [Example 105, c-[D-Phenylalanyl-N-methyl-L-isoleucyl-D-pipecolyl-L-pipecolyl-N-methyl-D-phenylalanyl-L-prolyl]] (cyclo([NMeI][dPip][Pip][dNMeF]P[dF])) | > 10000 | > 10000 | > 10000 |  |  | 
5 |  |  | CC[C@H](C)[C@@H]1NC(=O)[C@@H](Cc2c[nH]c3ccccc23)NC(=O)[C@@H]2CCCN2C(=O)[C@@H](Cc2ccccc2)N(C)C(=O)[C@H](CCCCN)NC(=O)[C@H]2CCCCN2C1=O [Example 132, c-[D-Tryptophanyl-L-isoleucyl-D-pipecolyl-L-lysyl-D-(N-methyl)phenylalanyl-L-prolyl]] (cyclo(I[dPip]K[dNMeF]P[dW])) | 65 | > 10000 | 10000 |  |  | 
6 | 810 |  | CC[C@H](C)[C@@H]1NC(=O)[C@@H](Cc2ccccc2)NC(=O)[C@@H]2CCCN2C(=O)[C@@H](Cc2ccccc2)N(C)C(=O)[C@H](CCCN)NC(=O)[C@H]2CCC=NN2C1=O [Example 125, c-[D-Phenylalanyl-L-isoleucyl-D-Δ-piperazyl-L-ornithyl-D-(N-methyl)phenylalanyl-L-prolyl] acetate salt] (cyclo(I[dPiz(1,6-dehydro)][Orn][dNMeF]P[dF])) | 16 |  | 1600 |  |  | 
7 |  |  | CC[C@H](C)[C@@H]1NC(=O)[C@@H](Cc2c[nH]c3ccccc23)NC(=O)[C@@H]2CCCN2C(=O)[C@@H](CC(=O)OC(C)(C)C)NC(=O)[C@@H]2CCCCN2C(=O)[C@H]2CCCCN2C1=O [Example 172, c-[D-Tryptophanyl-L-isoleucinyl-D-pipecolyl-L-pipecolyl-D-(β-t-butyl)aspartyl-L-prolyl]] (cyclo(I[dPip][Pip][dD](OtBu)P[dW])) |  | > 10000 | > 10000 | 20 |  | 
8 |  |  | CC[C@H](C)[C@@H]1NC(=O)[C@@H](Cc2ccccc2)NC(=O)[C@@H]2CCCN2C(=O)C(Cc2cccnc2)NC(=O)[C@@H]2CCCCN2C(=O)[C@H]2CCCCN2C1=O (single isomer, unassigned) [Example 10 (isomer 2), Cyclo[D-Phe-L-Ile-D-Pip-L-Pip-D,L-3-PyrAla-L-Pro]] | 1000 | > 10000 | 10000 |  |  | 
9 |  |  | CC[C@H](C)[C@@H]1NC(=O)C(Cc2c[nH]c3ccc(F)cc23)NC(=O)[C@@H]2CCCN2C(=O)[C@@H](Cc2c[nH]cn2)NC(=O)[C@@H]2CCCCN2C(=O)[C@H]2CCCCN2C1=O (single isomer, unassigned) [157 higher Rf] | 590 | 10000 | > 10000 |  |  | 
10 |  |  | C=C1NC(=O)[C@H]2CCCN2C(=O)[C@H]([C@@H](C)CC)NC(=O)[C@@H](Cc2ccccc2)NC(=O)[C@@H]2CCCN2C(=O)[C@@H](Cc2ccccc2)N(C)C1=O [Example 117, c-[D-Phenylalanyl-L-isoleucyl-D-prolyl-dehydroalanyl-N-methyl-D-phenylalanyl-L-prolyl]] (cyclo([Dha][dNMeF]P[dF]I[dP])) | > 10000 | > 10000 | > 10000 |  |  | 
11 |  |  | CC[C@H](C)[C@@H]1NC(=O)[C@@H](Cc2c[nH]c3ccccc23)NC(=O)[C@@H]2CCCN2C(=O)[C@@H](Cc2ccccc2)NC(=O)[C@@H]2CN(C(=O)OCc3ccccc3)CCN2C(=O)[C@H]2CCCCN2C1=O [Example 89, c-[D-Tryptophanyl-L-isoleucinyl-D-pipecolyl-L-piperazin-2-yl(4-Cbz)-D-phenylalanyl-L-prolyl]] (cyclo(I[dPip][X2][dF]P[dW])) |  | > 10000 |  | 35 | > 1000 | 
12 |  |  | CC[C@H](C)[C@@H]1NC(=O)[C@@H](Cc2ccccc2)NC(=O)[C@@H]2CCCN2C(=O)[C@@H](Cc2c[nH]cn2)NC(=O)[C@H](CCCCNC(=O)OCc2ccccc2)NC(=O)[C@H]2CCCCN2C1=O [Example 37, Cyclo[D-Phenylalanyl-L-isoleucyl-D-pipecolyl-L-(carbobenzyloxy)lysyl-D-histidyl-L-prolyl]] (cyclo(I[dPip]K(Cbz)[dH]P[dF])) | > 100 | 10000 | > 10000 |  |  | 
13 |  |  | CC[C@H](C)[C@@H]1NC(=O)[C@@H](Cc2c[nH]cn2)NC(=O)[C@@H]2CCCN2C(=O)[C@@H](Cc2ccccc2)N(C)C(=O)[C@@H]2CCCCN2C(=O)[C@H]2CCCCN2C1=O [Example 4, Cyclo[D-histidyl-L-isoleucyl-D-pipecolyl-L-pipecolyl-D-(N^α -methyl)-phenylalanyl-L-prolyl]] (cyclo(I[dPip][Pip][dNMeF]P[dH])) | > 10000 | > 10000 | > 10000 |  |  | 
14 | 610 | 570 | CC[C@H](C)[C@@H]1NC(=O)[C@@H](Cc2ccccc2)NC(=O)[C@@H]2CCCN2C(=O)[C@@H](Cc2ccccc2)N(C)C(=O)[C@H](CCCCN)NC(=O)[C@H]2CCC=NN2C1=O [Example 174, c-[D-Phenylalanyl-L-isoleucyl-D-Δ-piperazyl-L-Lysyl-N-Me-D-phenylalanyl-L-prolyl]] (cyclo(I[dPiz(1,6-dehydro)]K[dNMeF]P[dF])) | 21 |  |  |  |  | 
15 | 6850 | 175 | CC[C@H](C)[C@@H]1NC(=O)[C@@H](Cc2c[nH]c3ccccc23)NC(=O)[C@@H]2CCCN2C(=O)[C@@H](Cc2ccccc2)N(C)C(=O)[C@@H]2CNCCN2C(=O)[C@H]2CCC=NN2C1=O [Example 170, c-[D-Tryptophanyl-L-isoleucinyl-D-Δ-piperazyl-L-piperazin-2-yl-N^α -Me-D-phenylalanyl-L-prolyl]] (cyclo(I[dPiz(1,6-dehydro)][Pip(4-aza)][dNMeF]P[dW])) | 3.1 |  |  |  |  | 

Row | Compound | IC50 (AVP-V1 sites; [1]) [nM] | IC50 (AVP-V2 sites; [3]) [nM] | IC50 (uterine OT receptors; [2]) [nM] | IC50 (AVP-V1 sites; [4]) [nM] | IC50 (AVP-V2 sites; [5]) [nM] | inhibition at 0.1 µM (uterine OT receptors) [%] | IC50 (AVP-V2 sites; Receptor Binding Results IC50 (nM) [^3 H]-AVP-V2) [nM] | IC50 (uterine OT receptors; Receptor Binding Results IC50 (nM) [^3 H]OT) [nM]
16 | CN1C(=O)[C@@H]2CCCCN2C(=O)[C@H]2CCCCN2C(=O)[C@H](Cc2ccccc2)NC(=O)[C@@H](Cc2ccccc2)NC(=O)[C@@H]2CCCN2C(=O)[C@H]1Cc1ccccc1 [Example 136, c-[D-Phenylalanyl-L-phenylalanyl-D-pipecolyl-L-pipecolyl-D-(N-methyl)phenylalanyl-L-prolyl]] (cyclo(F[dPip][Pip][dNMeF]P[dF])) |  | 8000 | 410 | > 10000 |  |  |  | 
17 | CC[C@H](C)[C@@H]1NC(=O)[C@@H](Cc2c[nH]c3ccccc23)NC(=O)[C@@H]2CCCN2C(=O)[C@@H](Cc2c[nH]cn2)NC(=O)[C@@H]2CCCCN2C(=O)[C@H]2CCCCN2C1=O [Example 17, C-[D-tryptophanyl-L-isolelucyl-D-pipecolyl-L-pipecolyl-D-histidyl-L-prolyl]] (cyclo(I[dPip][Pip][dH]P[dW])) | 8200 |  |  |  | 5400 |  |  | 14
